These results are taken from ChEMBL document CHEMBL3352679, “Structure and evaluation of antibacterial and antitubercular properties of new basic and heterocyclic 3-formylrifamycin SV derivatives obtained via 'click chemistry' approach” (Eur J Med Chem, 2014).

In brackets after ≈: the same amount, converted by molar mass. Where only a bound is given, the exact number is not on record here.

For data set [1], the system named is Staphylococcus aureus. Put plainly: Antibacterial activity against Staphylococcus aureus ATCC 4163 after 18 hrs by serial microdilution method. The class given is functional. As to conditions: ATCC 4163, 18 h. Background: Broth dilution looks for growth in wells or tubes with falling amounts of substance.
Data set [2] deals with Staphylococcus aureus. Put plainly: Antibacterial activity against Staphylococcus aureus ATCC 25923 after 18 hrs by serial microdilution method. The following applies: ATCC 25923, 18 h. Type of data set: functional.
Data set [3] concerns Staphylococcus aureus. Put plainly: Antibacterial activity against Staphylococcus aureus ATCC 6538 after 18 hrs by serial microdilution method. Type of data set: functional. The following applies: ATCC 6538, 18 h.
Data set [4] deals with Staphylococcus epidermidis. Put plainly: Antibacterial activity against Staphylococcus epidermidis ATCC 12228 after 18 hrs by serial microdilution method. The class given is functional. As to conditions: ATCC 12228, 18 h.
Data set [5] concerns Staphylococcus epidermidis. Briefly: Antibacterial activity against Staphylococcus epidermidis ATCC 49134 after 18 hrs by serial microdilution method. The following applies: ATCC 49134, 18 h. The class given is functional.
The test system of data set [6] is Escherichia coli. Put plainly: Antibacterial activity against Escherichia coli ATCC 10538 after 18 hrs by serial microdilution method. The class given is functional. The following applies: ATCC 10538, 18 h.
In data set [7] the test system is Enterococcus faecalis. Put plainly: Antibacterial activity against Enterococcus faecalis ATCC 19433 after 18 hrs by serial microdilution method. Type of data set: functional. As to conditions: ATCC 19433, 18 h.
Data set [8] relates to Salmonella enterica subsp. enterica serovar Abony. Briefly: Antibacterial activity against Salmonella abony NCTC 6017 after 18 hrs by serial microdilution method. The class given is functional. The following applies: NCTC 6017, 18 h.
The subject of data set [9] is Trichophyton rubrum. Put plainly: Antifungal activity against Trichophyton rubrum ATCC 28188 after 18 hrs by serial microdilution method. Type of data set: functional. The following applies: ATCC 28188, 18 h.
Data set [10] concerns Candida albicans. Briefly: Antifungal activity against Candida albicans ATCC 10231 after 18 hrs by serial microdilution method. The following applies: ATCC 10231, 18 h. The class given is functional.
For data set [11], the system named is Mycobacterium tuberculosis. Briefly: Antituberculosis activity against Mycobacterium tuberculosis H37Rv after 7 days by serial two fold dilution method. Type of data set: functional. The following applies: 168 h.
Data set [12] is described as follows: Solubility in water at pH 7 and 25 degC by UV-vis spectrophotometry. The class given is physicochemical.
Data set [13] in a line: Octanol-water partition coefficient, log P of the compound. The class given is physicochemical.

By MIC is commonly meant the lowest concentration found to suppress growth. Low values mean a more susceptible organism, high ones a less susceptible organism. Usually solubility stands for the dissolved amount per volume that the medium holds. The low end stands for little dissolved substance, the high end for much dissolved substance. As usually defined, the logP is a log measure of how a compound divides between an organic and an aqueous phase. High values mean a more lipophilic compound, low ones a more hydrophilic compound. As for `CO[C@H]1/C=C/O[C@@]2(C)Oc3c(C)c(O)c4c(O)c(c(C=O)c(O)c4c3C2=O)NC(=O)/C(C)=C\C=C\[C@H](C)[C@H](O)[C@@H](C)[C@@H](O)[C@@H](C)[C@H](OC(C)=O)[C@@H]1C`, the MIC in [1], in data set [2], in data set [3], in data set [4], in data set [5] and in data set [6] was > 1 µg/mL in each case. In addition, the MIC in [7], in [8], in data set [9], in data set [10] and in [11] was > 1 µg/mL throughout. The solubility in data set [12] was 100 µg/mL (≈ 138 µM). Also, the logP in [13] was 1.71.
Take `CCCc1cn(CCN2Cc3c4c(O)c5c(O)c(C)c6c(c5c3O)C(=O)[C@@](C)(O/C=C/[C@H](OC)[C@@H](C)[C@@H](OC(C)=O)[C@H](C)[C@H](O)[C@H](C)[C@@H](O)[C@@H](C)/C=C/C=C(/C)C2=N4)O6)nn1`: the MIC is 1 µg/mL (≈ 1.18 µM) in [1]; > 1 µg/mL in data set [2]; > 1 µg/mL in data set [3]; > 1 µg/mL in data set [4]; > 1 µg/mL in data set [5]; > 1 µg/mL in data set [6]. The MIC was > 1 µg/mL in data set [7]; > 1 µg/mL in data set [8]; > 1 µg/mL in data set [9]; > 1 µg/mL in [10]; 1 µg/mL (≈ 1.18 µM) in data set [11]. In [12], the solubility was < 10 µg/mL. The compound also registered a logP in [13] of 3.13.
As for `CO[C@H]1/C=C\O[C@@]2(C)Oc3c(C)c(O)c4c(O)c(c(CNC5CCN(Cc6ccccc6)CC5)c(O)c4c3C2=O)NC(=O)/C(C)=C\C=C/[C@H](C)[C@H](O)[C@@H](C)[C@@H](O)[C@@H](C)[C@H](OC(C)=O)[C@@H]1C`, the MIC came out at 0.125 µg/mL (≈ 0.139 µM) in [1]; 0.25 µg/mL (≈ 0.278 µM) in data set [2]; 0.125 µg/mL (≈ 0.139 µM) in [3]; 0.06 µg/mL (≈ 0.0667 µM) in data set [4]; 0.03 µg/mL (≈ 0.0333 µM) in [5]; 0.005 µg/mL (≈ 0.00556 µM) in data set [11]. The compound further registered a solubility in data set [12] of 150 µg/mL (≈ 167 µM). The compound further showed a logP in data set [13] of 2.05.
Regarding `CO[C@H]1/C=C/O[C@@]2(C)Oc3c(C)c(O)c4c(O)c(c(CNCCN(C)C)c(O)c4c3C2=O)NC(=O)/C(C)=C\C=C\[C@H](C)[C@H](O)[C@@H](C)[C@@H](O)[C@@H](C)[C@H](OC(C)=O)[C@@H]1C`, the MIC in data set [1] is 1 µg/mL (≈ 1.25 µM); in data set [2], > 1 µg/mL; in [3], 1 µg/mL (≈ 1.25 µM); in [4], 0.5 µg/mL (≈ 0.627 µM); in [5], 0.5 µg/mL (≈ 0.627 µM); in data set [6], > 1 µg/mL. Moreover, the MIC in [7], in data set [8], in [9], in [10] and in [11] was > 1 µg/mL throughout. The concentration in solution in data set [12] (solubility) was 320 µg/mL (≈ 401 µM). This compound also yielded a logP in data set [13] of 1.48.
As to `CCCCCc1cn(CCCN2Cc3c4c(O)c5c(O)c(C)c6c(c5c3O)C(=O)[C@@](C)(O/C=C/[C@H](OC)[C@@H](C)[C@@H](OC(C)=O)[C@H](C)[C@H](O)[C@H](C)[C@@H](O)[C@@H](C)/C=C/C=C(/C)C2=N4)O6)nn1`, the MIC in data set [1] was 1 µg/mL (≈ 1.13 µM); in [2], > 1 µg/mL; in data set [3], > 1 µg/mL; in data set [4] it was > 1 µg/mL; in data set [5], > 1 µg/mL; in data set [6], > 1 µg/mL. Besides, the MIC in [7] is > 1 µg/mL; in data set [8], > 1 µg/mL; in data set [9] it was > 1 µg/mL; in data set [10], > 1 µg/mL; in [11], 1 µg/mL (≈ 1.13 µM). Moreover, in [12], the solubility is < 10 µg/mL. Also, the logP in [13] was 4.47.
For `CO[C@H]1/C=C/O[C@@]2(C)Oc3c(C)c(O)c4c(O)c(c(/C=N/N5CCN(C)CC5)c(O)c4c3C2=O)NC(=O)/C(C)=C\C=C\[C@H](C)[C@H](O)[C@@H](C)[C@@H](O)[C@@H](C)[C@H](OC(C)=O)[C@@H]1C` [RIFAMPIN], the MIC is 0.008 µg/mL (≈ 0.00972 µM) in data set [1]; 0.016 µg/mL (≈ 0.0194 µM) in data set [2]; 0.008 µg/mL (≈ 0.00972 µM) in [3]; 0.004 µg/mL (≈ 0.00486 µM) in [4]; 0.004 µg/mL (≈ 0.00486 µM) in data set [5]; > 1 µg/mL in [6]. Moreover, the MIC in data set [7] was 1 µg/mL (≈ 1.22 µM); in data set [8], > 1 µg/mL; in data set [9], > 1 µg/mL; in [10], > 1 µg/mL; in data set [11] it was 0.005 µg/mL (≈ 0.00608 µM). The logP in data set [13] came to 1.66.
